# Experimental data as given in US7872134B2, “2-{[2-(substituted amino)ethyl]sulfonyl}ethyl N,N-bis(2-chloroethyl)phosphorodiamidates” (Telik, Inc., priority 2007, dated 2011).
# Tests used:
# [1] = test system: DLD-1 (colorectal adenocarcinoma); assay: Cytotoxicity/Growth Inhibition Assay (CellTiter-Glo); type: cell-based; conditions: Homo sapiens, 96 h, DLD-1 cells, hydrochloride salts, cultured 4 days
# Procedure: The following examples illustrate the beneficial effect of the compounds of this invention against human cancer cell lines in vitro.
# The human cancer cell line DLD-1 (colorectal adenocarcinoma) was obtained from the American Type Culture Collection, Manassas, Va., U.S.A. The CellTiter-Glo assay kit was obtained from Promega Corporation, Madison, Wis., U.S.A. All products were used in accordance with manufacturer's directions. All assays were conducted in triplicate wells, with dimethyl sulfoxide (DMSO) solvent control. The extent of cell growth was expressed as a percentage of the signal from the solvent control wells.
# Log-phase cells were trypsinized, collected by centrifugation, and resuspended in a small volume of fresh medium, and the density of viable cells was determined following Trypan Blue staining. Cells were diluted in fresh media (3×10^3 cells/mL for DLD-1), and added at 150 μL/well to 96-well plates, and incubated for several hours to allow attachment in the case of adherent cells. […] After incubation for 10 minutes at room temperature, and the plate was read with a luminometer.
# MIA PaCa-2 tumor = assay: MiaPaCa-2 Xenograft Assay, Intraperitoneal Administration; type: in vivo, athymic nu/nu mice; conditions: for tumor mass inhibition relative to vehicle: autopsy day 19 after transplantation
# Procedure: Male athymic nu/nu mice, 6-8 weeks old (approximately 20 g), were implanted subcutaneously in the right fore flank with 20-30 mg pieces of MIA PaCa-2 tumor harvested from similar nu/nu mice that had previously been implanted with the MIA PaCa-2 tumor. […] A group of mice was treated with compound 1A as the hydrochloride salt dissolved in aqueous 5% dextrose, at 100 mg/Kg by intraperitoneal injection once/day for 5 consecutive days; with vehicle and cyclophosphamide (30 mg/Kg) also administered by intraperitoneal injection for the same time. Tumor mass was estimated from volume on days 10, 13, and 17; and measured at autopsy on day 19 after transplantation.
SMILES,IC50 [1] [µM],"tumor mass inhibition relative to vehicle (MIA PaCa-2 tumor; 100 mg/Kg intraperitoneal once/day for 5 consecutive days, hydrochloride salt) [%]","safety at the dose tested (MIA PaCa-2 tumor; nu/nu mice, 100 mg/Kg intraperitoneal once/day for 5 days)",tumor mass inhibition relative to vehicle (MIA PaCa-2 tumor; 30 mg/Kg intraperitoneal once/day for 5 consecutive days) [%]
"N[C@@H](CCC(=O)N[C@@H](CS(=O)(=O)CCOP(=O)(N(CCCl)CCCl)N(CCCl)CCCl)C(=O)N[C@@H](C(=O)O)c1ccccc1)C(=O)O [canfosfamide, reference compound]",11,–,–,–
"CCN(CC)CCS(=O)(=O)CCOP(N)(=O)N(CCCl)CCCl (centres unmarked) [compound 1A, 2-{[2-(diethylamino)ethyl]sulfonyl}ethyl N,N-bis(2-chloroethyl)phosphorodiamidate]",13,83,safe and non-toxic,–
"O=P1(N(CCCl)CCCl)NCCCO1 (centres unmarked) [cyclophosphamide, reference compound]",–,–,–,84
